In brackets after ≈: the same amount, converted by molar mass. Entries after “also recorded” stand apart in the source; their conditions may differ.
How the values were obtained:
Type in all cases: physicochemical
[1] = Equilibration of Compound 1 Form I with solvents at 50° C. for 1 week (XRPD)
Method: About 50 mg of Compound 1 Form I (free form) was equilibrated in 1 mL of solvent at 50° C. for 1 week with a stirring plate. The obtained suspension was filtered and the solid part (wet cake) was investigated by XRPD.

[2] = Approximate solubility of Compound 1 Form I at 25° C. and 50° C. (visual observation); conditions: thermodynamic from solid
Method: Max. volume of each solvent added was 1 mL. Approximate solubility was determined by visual observation.

[3] = Precipitation of Compound 1 by addition of anti-solvent to DMSO solution (XRPD, residual solvent); conditions: for residual DMSO: 1H-NMR after vacuum drying at 80° C. for 2 hours; for Notes (appearance) / XRPD: solvent DMSO
Method: About 20 mg of Compound 1 Form I (free form) was dissolved in DMSO and anti-solvent was added into the obtained solution slowly. Precipitates were collected by filtration. The solid part (wet cake) was investigated by XRPD. Residual solvent of these solids was also analyzed by ^1H-NMR after vacuum dried at 80° C. for 2 hours.

[4] = Scale-up experiment (200 mg) and characterization of new polymorphs of Compound 1
Method: Scale-up 1: About 200 mg of Compound 1 Form I was dissolved in 10 mL THF/Water (95:5, v:v) at 40° C. […] Compound 1 Form IV was obtained. It was subjected to characterization.
Scale-up 2: About 200 mg of Compound 1 Form I was dissolved in 10 mL THF/Water (95:5, v:v) at 40° C. […] It was subjected to characterization.

[5] = Equilibration of Compound 1 Form I with solvents at 25° C. for 2 weeks (XRPD)
Method: About 30 mg of Compound 1 Form I (free form) was equilibrated in 1 mL of solvent at 25° C. for 2 weeks with a stirring plate. The obtained suspension was filtered. The solid part (wet cake) was investigated b XRPD.

[6] = Crystallization of Compound 1 at room temperature by slow evaporation (XRPD)
Method: About 20 mg of Compound 1 Form I (free form) was dissolved and filtered by 0.45 μm nylon filter. Obtained solutions were evaporated slowly at ambient condition. Solid residues were examined for their polymorphic form.

[7] = Water activity study of Compound 1 Form I at 25° C. for 1 week; conditions: for change of morphic form in solvents with high water content (water activity study): acetone/water, DMSO/water, pure water, 25° C.
Method: Water activity experiments were conducted at 25° C. in 7 different water activities solvent mixtures to determine critical water activity of Compound 1 Form I. About 20 mg of Compound 1 Form I was added to 1.0 mL of acetone/water or DMSO/water mixtures and stirred at 400 rpm and 25° C. for 1 week.

[8] = Behavior of Compound 1 Form I under heating and cooling (DSC cycles); conditions: for Melting onset: reheat to 300° C. at 10° C./min
Method: Polymorphic behavior of Compound 1 Form I (free form) was investigated by two different heating-cooling cycles of DSC. The results were summarized in Table 6. • HCH1: 30° C. to 300° C. at 10° C./min; 300° C. to −20° C. at 20° C./min; reheat to 300° C. at 10° C./min. • HCH2: 30° C. to 300° C. at 10° C./min; 300° C. to −20° C. at 2° C./min; reheat to 300° C. at 10° C./min.

[9] = solids after equilibration in EtOH
[10] = anti-solvent Water, about 2 mg of seeds added
[11] = solids after equilibration in EtOH, 25° C., 2 weeks

In the case of `O=C1CC[C@H](N2C(=O)c3cccc4c(Cc5ccc(CN6CCOCC6)cc5)ccc2c34)C(=O)N1` [Compound 1 Form I, (S)-3-(6-(4-(morpholinomethyl)benzyl)-2-oxobenzo[cd]indol-1(2H)-yl)piperidine-2,6-dione], the XRPD ([1]; equilibration in ACN) is reported as “Form I”, the XRPD ([1]; equilibration in Acetone) is reported as “Form I” and the XRPD ([1]; equilibration in DCM) is reported as “Form I”. For the same compound, the XRPD ([1]; equilibration in DCM:MeOH (v:v = 1:1)) was “Form I”, the XRPD ([1]; equilibration in DCM:THF(v:v = 8:2)) was “Form I” and the XRPD ([1]; equilibration in EA) was “Form I”. The XRPD ([1]; equilibration in EtOH) was “Form I”, the XRPD ([1]; equilibration in MeOH) was “Form I” and the XRPD ([1]; equilibration in THF, wet cake) was “Form I”. The XRPD ([1]; equilibration in THF:Water (v:v = 95:5)) was “Form I”, the Melting onset [1, 9] was “Melting onset: 239.5° C.,” and the enthalpy [1, 9] was “enthalpy: 109 J/g”. The “residual DCM” value [1, 9] was 0.4% residual DCM, the solubility ([2]; DCM, 25 °C, organic solvent or mixture) was 8000 to 13000 µg/mL (≈ 17 to 27.7 mM) and the solubility ([2]; DCM, 50 °C, organic solvent or mixture) was 16000 to 25000 µg/mL (≈ 34.1 to 53.2 mM). The solubility ([2]; DCM:MeOH (v:v = 1:1), 25 °C, organic solvent or mixture, DCM:MeOH (v:v = 1:1), 25° C.) was 17000 to 20000 µg/mL (≈ 36.2 to 42.6 mM), the solubility ([2]; DCM:MeOH (v:v = 1:1), 50 °C, organic solvent or mixture, DCM:MeOH (v:v = 1:1), 50° C.) was 29000 to 33000 µg/mL (≈ 61.8 to 70.3 mM) and the solubility ([2]; DMSO, 25 °C, organic solvent or mixture) was 83000 to 125000 µg/mL (≈ 177 to 266 mM). The solubility ([2]; DMSO, 25 °C, organic solvent or mixture, in DMSO, solubilized at about 25° C.) was at least 50000 µg/mL, the solubility ([2]; DMSO, 50 °C, organic solvent or mixture) was 167000 to 250000 µg/mL (≈ 356 to 532 mM) and the solubility ([2]; Ethanol:Water (8:2, v:v), 25 °C, organic solvent or mixture, Ethanol:Water (8:2, v:v), 25° C.) was under 5000 µg/mL. The solubility ([2]; Ethanol:Water (8:2, v:v), 50 °C, organic solvent or mixture, Ethanol:Water (8:2, v:v), 50° C.) was under 10000 µg/mL, the solubility ([2]; MTBE, 25 °C, organic solvent or mixture) was under 5000 µg/mL and the solubility ([2]; MTBE, 50 °C, organic solvent or mixture) was under 10000 µg/mL. It also gave a solubility ([2]; THF, 25 °C, organic solvent or mixture) of 8000 to 13000 µg/mL (≈ 17 to 27.7 mM), a solubility ([2]; THF, 50 °C, organic solvent or mixture) of 16000 to 25000 µg/mL (≈ 34.1 to 53.2 mM) and a solubility ([2]; THF:Water (v:v = 95:5), 25 °C, organic solvent or mixture, THF:Water (v:v = 95:5), 25° C.) of 17000 to 20000 µg/mL (≈ 36.2 to 42.6 mM). It also gave a solubility ([2]; THF:Water (v:v = 95:5), 50 °C, organic solvent or mixture, THF:Water (v:v = 95:5), 50° C.) of 40000 to 50000 µg/mL (≈ 85.2 to 106 mM), a solubility ([2]; acetone, 25 °C, organic solvent or mixture) of under 5000 µg/mL and a solubility ([2]; acetone, 50 °C, organic solvent or mixture) of under 10000 µg/mL. For the same compound, the solubility ([2]; acetonitrile, 25 °C, organic solvent or mixture) was under 5000 µg/mL, the solubility ([2]; acetonitrile, 50 °C, organic solvent or mixture) was under 10000 µg/mL and the solubility ([2]; ethanol, 25 °C, organic solvent or mixture) was under 5000 µg/mL. The solubility ([2]; ethanol, 50 °C, organic solvent or mixture) was under 10000 µg/mL, the solubility ([2]; ethyl acetate, 25 °C, organic solvent or mixture) was under 5000 µg/mL and the solubility ([2]; ethyl acetate, 50 °C, organic solvent or mixture) was under 10000 µg/mL. The solubility ([2]; heptane, 25 °C, organic solvent or mixture) was under 5000 µg/mL, the solubility ([2]; heptane, 50 °C, organic solvent or mixture) was under 10000 µg/mL and the solubility ([2]; methanol, 25 °C, organic solvent or mixture, approximate, visual observation) was under 5000 µg/mL. For the same compound, the solubility ([2]; methanol, 50 °C, organic solvent or mixture, approximate, visual observation) was under 10000 µg/mL, the solubility ([2]; water, 25 °C) was under 5000 µg/mL and the solubility ([2]; water, 50 °C) was under 10000 µg/mL. For the same compound, the “residual DMSO” value ([3]; DMSO/EtOH precipitate) was 0.05 equiv. residual, the “residual DMSO” value ([3]; DMSO/MeOH precipitate) was 0.14 equiv. residual and the “residual DMSO” value ([3]; DMSO/Water precipitate) was 0.90 equiv. residual. For the same compound, the “Notes (appearance)” value ([3]; anti-solvent Acetone, held at 5° C. for 2 days, no solid obtained) was “Clear solution^a”, the “Notes (appearance)” value ([3]; anti-solvent EtOAc) was “Clear solution” and the “Notes (appearance)” value ([3]; anti-solvent EtOH) was “Suspension”. For the same compound, the XRPD ([3]; anti-solvent EtOH) was “−”, the “Notes (appearance)” value ([3]; anti-solvent MeOH) was “Suspension” and the XRPD ([3]; anti-solvent MeOH, wet cake) was “−”. The “Notes (appearance)” value ([3]; anti-solvent Water) was “Suspension”, the XRPD ([3]; anti-solvent Water) was “−” and the “Notes (appearance)” value [3, 10] was “Suspension^b”. The XRPD [3, 10] was “−”, the “Stoichiometry: DCM” value ([4]; 1H-NMR, listed as Form I) was 0.6% DCM and the DSC enthalpy ([4]; DSC, 10° C./min) was “enthalpy 114 J/g”. The DSC melting onset ([4]; DSC, 10° C./min) was 233.9° C.;, the Thermogravimetry weight loss ([4]; TGA, 10° C./min, at 225° C.) was “About 2.0%” and the “stability of the form in water (equilibration experiments)” value ([5]; alone in water / pure water) was “very stable; also recorded: stable”. The XRPD ([5]; equilibration in ACN, 25° C., 2 weeks) was “Form I”, the XRPD ([5]; equilibration in Acetone, 25° C., 2 weeks) was “Form I” and the XRPD ([5]; equilibration in DCM, 25° C., 2 weeks) was “Form I”. The XRPD ([5]; equilibration in DCM:MeOH (v:v = 1:1), 25° C., 2 weeks) was “Form I”, the XRPD ([5]; equilibration in DCM:THF(v:v = 8:2), 25° C., 2 weeks) was “Form I” and the XRPD ([5]; equilibration in EA, 25° C., 2 weeks) was “Form I”. For the same compound, the XRPD ([5]; equilibration in EtOH, 25° C., 2 weeks) was “Form I”, the XRPD ([5]; equilibration in MeOH, 25° C., 2 weeks) was “Form I” and the XRPD ([5]; equilibration in THF, 25° C., 2 weeks, wet cake) was “Form I”. The XRPD ([5]; equilibration in THF:Water (v:v = 95:5), 25° C., 2 weeks) was “Form I”, the Melting onset [5, 11] was “Melting onset: 239.0° C.,” and the enthalpy [5, 11] was “enthalpy: 107 J/g”. For the same compound, the “residual DCM” value [5, 11] was 0.4% residual DCM, the “Notes (form obtained)” value ([6]; slow evaporation from DCM) was “Form I” and the “XRPD (form change)” value ([6]; slow evaporation from DCM at ambient condition) was “−”. The “Notes (form obtained)” value ([6]; slow evaporation from MeOH/DCM(v:v = 1:1)) was “Form II”, the “XRPD (form change)” value ([6]; slow evaporation from MeOH/DCM(v:v = 1:1) at ambient condition) was “+ (Form changed detected.)” and the “Notes (form obtained)” value ([6]; slow evaporation from THF) was “Form III”. For the same compound, the “XRPD (form change)” value ([6]; slow evaporation from THF at ambient condition) was “+ (Form changed detected.)”, the “Notes (form obtained)” value ([6]; slow evaporation from THF:Water (v:v = 95:5)) was “Form III” and the “XRPD (form change)” value ([6]; slow evaporation from THF:Water (v:v = 95:5) at ambient condition) was “+ (Form changed detected.)”. The XRPD ([7]; Acetone, a.w. 0, 25° C.) was “Form I”, the XRPD ([7]; Acetone/Water (91:9, v:v), a.w. 1, 25° C.) was “Form I” and the XRPD ([7]; Acetone/Water (94:6, v:v), a.w. 0.5, 25° C.) was “Form I”. For the same compound, the XRPD ([7]; Acetone/Water (97:3, v:v), a.w. 0.3, 25° C.) was “Form I”, the XRPD ([7]; Acetone/Water (99:1, v:v), a.w. 0.1, 25° C.) was “Form I” and the XRPD ([7]; DMSO/Water (64:36, v:v), a.w. 0.5, 25° C.) was “Form I”. The XRPD ([7]; Water, a.w. 1, 25° C.) was “Form I”, the “change of morphic form in solvents with high water content (water activity study)” value [7] was “no significant changes to the morphic form” and the “change of morphic form in solvents with high water content (water activity study)” value ([7]; listed as Form I) was “only Form I was obtained”. For the same compound, the Melting onset ([8]; HCH1: 30° C. to 300° C. at 10° C./min, 300° C. to −20° C. at 20° C./min) was “Melting onset 231.4° ° C”, the enthalpy ([8]; HCH1: cooling 300° C. to −20° C. at 20° C./min) was “C.; enthalpy 115 J/g” and the Melting onset ([8]; HCH2: 30° C. to 300° C. at 10° C./min, 300° C. to −20° C. at 2° C./min) was “Melting onset 231.3° ° C”. The enthalpy ([8]; HCH2: cooling 300° C. to −20° C. at 2° C./min) was “C.; enthalpy 108 J/g”.

— patent US20240391912A1, “MORPHIC FORMS OF CFT7455 AND METHODS OF MANUFACTURE THEREOF” (C4 THERAPEUTICS, INC., priority 2022, published 2024)
